Measured values: paper PMC11053489 (Viruses, 2024)
Counter-ions that a name gives are not always drawn. Like-named read-outs stand apart in the source and are kept apart here.

Experiments:
[1] = tested on: SARS-CoV-2 (hCoV-19/USA-WA1/2020) in Calu-3 cells; assay: microbe, parasite or virus in culture; format: cell-based; settings: for EC50: read-out: Calu-3 SARS-CoV-2 EC50; for anti-SARS-CoV-2 activity in Calu-3 cells (in words): tested up to 100 μM; for EC90: read-out: Calu-3 SARS-CoV-2 EC90
[2] = tested on: CCRF-CEM cells; settings: human
[3] = tested on: SARS-CoV-2 (hCoV-19/USA-WA1/2020) in Vero CCL-81 cells; assay: microbe, parasite or virus in culture; format: cell-based; settings: for EC50: read-out: Vero CCL-81 SARS-CoV-2 EC50; for EC90: read-out: Vero CCL-81 SARS-CoV-2 EC90
[4] = tested on: Huh-7 cells; settings: for Huh7 CC50 {Unbound}: human
[5] = tested on: SARS-CoV-2 (hCoV-19/USA-WA1/2020) in Caco-2 cells
[6] = human, in vivo
[7] = in vitro; settings: human, Caco-2
[8] = in vitro; settings: human
[9] = in vitro; settings: human; remark: listed apart in the source
[10] = tested on: SARS-CoV-2 (hCoV-19/USA-WA1/2020) in Caco-2 cells; assay: microbe, parasite or virus in culture; settings: Severe acute respiratory syndrome coronavirus 2, Caco-2, 72 h; for EC50: read-out: Caco-2 SARS-CoV-2 EC50; for EC90: read-out: Caco-2 SARS-CoV-2 EC90
[11] = in vitro; settings: African green monkey
[12] = MTS cytotoxicity assay, Huh-7 cells; settings: human
[13] = MTS cytotoxicity assay, PBM cells; settings: human
[14] = MTS cytotoxicity assay, CEM cells; settings: human
[15] = Peak plasma concentration
[16] = MTS cytotoxicity assay, Calu-3 cells; settings: human
[17] = MTS cytotoxicity assay, Caco-2 cells; settings: human
[18] = MTS cytotoxicity assay, Vero CCL-81 cells; settings: African green monkey
[19] = tested on: Vero CCL-81 cells; settings: for Vero CC50 {Unbound}: African green monkey
[20] = cited from earlier work
[21] = tested on: primary human peripheral blood mononuclear cells (PBM); settings: for PBM CC50 {Unbound}: human
[22] = in vitro; settings: human; remark: listed apart in the source
[23] = in vitro; settings: human; remark: listed apart in the source
[24] = tested on: COVID-19 / SARS-CoV-2 infection; settings: with standard medical care versus placebo plus standard care, 38 ambulatory individuals; cited from earlier work
[25] = tested on: Calu-3 cells
[26] = in vivo, iv; cited from earlier work
[27] = tested on: Caco-2 cells
[28] = Severe acute respiratory syndrome coronavirus 2, Calu-3, MOI 0.01, 72 h, 2% FBS
[29] = Severe acute respiratory syndrome coronavirus 2, Table 1 drugs, MOI 0.1, 48 h, 2% FBS
[30] = Table 1, ref column Refs of Table 1
[31] = Severe acute respiratory syndrome coronavirus 2, Calu-3, 72 h
[32] = Severe acute respiratory syndrome coronavirus 2, 48 h

Compound	EC50 [1, 28] [µM]	EC50 [3, 29] [µM]	EC90 [3, 29] [µM]	Caco-2 Unbound Cmax/EC50 ([5]; Caco-2)	Cmax (μM) {unbound} [6] [µM]	CC50 at 3 days [7] [µM]	CC50 at 3 days [8] [µM]	CC50 at 5 days [9] [µM]	EC50 [10] [µM]	EC90 [10] [µM]	CC50 at 3 days [11] [µM]	CC50 at 4 days [12] [µM]	CC50 at 5 days [13] [µM]	Cmax (μM) {unbound} ([15]; human, in vivo) [µM]	CC50 at 3 days [16] [µM]	CC50 at 3 days [17] [µM]	CC50 at 3 days [18] [µM]	Fun (unbound fraction of drug in plasma) [20, 30]	also measured
Cc1cccc(/C=N/Nc2cc(N3CCOCC3)nc(OCCc3ccccn3)n2)c1 [Apilimod mesylate]	> 100	0.7	7.4	0.0005	0.043	> 100	> 100	> 100	85	> 100	> 100	–	–	–	–	–	–	–	anti-SARS-CoV-2 activity in Calu-3 cells (in words) [1]: inactive; CEM CC50 {Unbound} ([2]; 4 days): 62.2 µM; Huh7 CC50 {Unbound} ([4]; 4 days): 54.8 µM
Cc1ccc(-c2cc(C(F)(F)F)nn2-c2ccc(S(N)(=O)=O)cc2)cc1 [Celecoxib]	3	7.2	14.6	–	–	–	–	–	0.7	1.2	–	31.1	> 100	0.056	70.5	59.1	50	–	EC90 [1, 28]: 6.3 µM; Caco-2 Unbound Cmax/EC50 ([5]; Cmax × Fun/EC50): 0.08; CC50 at 4 days [14]: 77.1 µM
COC(=O)N[C@H](C(=O)N1CCC[C@H]1c1nc(-c2ccc(-c3ccc(-c4c[nH]c([C@@H]5CCCN5C(=O)[C@@H](NC(=O)OC)C(C)C)n4)cc3)cc2)c[nH]1)C(C)C [Daclatasvir]	> 100	0.7	3.5	0.0005	–	–	–	–	44.7	89.4	–	–	–	–	–	–	–	0.01	CEM CC50 {Unbound} [2]: 26.2 {23.6} μM; Huh7 CC50 {Unbound} [4]: 53.6 {48.3} μM; Vero CC50 {Unbound} [19]: 50.6 {45.6} μM; CC50 [7]: 67.6 µM; Cmax (μM) {unbound} ([15]; Table 1, Cmax × Fun): 0.02 µM; CC50 [11]: 50.6 µM; PBM CC50 {Unbound} [21]: 36.4 {29.2} μM
O=c1c2ccccc2[se]n1-c1ccccc1 [Ebselen]	–	–	–	–	0.013	> 100	> 100	93.2	> 100	–	22.4	–	–	–	–	–	–	–	EC50 [1, 31]: 6.5 µM; EC90 [1, 31]: > 10 µM; CEM CC50 {Unbound} ([2]; 4 days): 42.3 µM; EC50 [3, 32]: 1.1 µM; EC90 [3, 32]: 2.7 µM; Huh7 CC50 {Unbound} ([4]; 4 days): 76.3 µM; Vero CC50 {Unbound} ([19]; 3 days): 20.3 µM; Fun (unbound fraction of drug in plasma) ([20]; plasma): 0.05; PBM CC50 {Unbound} ([21]; 5 days): 75.5 µM
NC(=O)c1nc(F)c[nH]c1=O [Favipiravir]	> 300	90.6	234	0.74	193	> 300	> 300	> 100	256	> 300	> 100	–	–	–	–	–	–	–	CC50 at 4 days [22]: > 100 µM; CC50 at 4 days [23]: > 100 µM
CC(C)OC(=O)C(C)(C)Oc1ccc(C(=O)c2ccc(Cl)cc2)cc1 [Fenofibrate]	–	–	–	–	–	–	–	–	–	–	–	> 100	38.9	0.28	≥ 100	> 100	> 100	–	anti-SARS-CoV-2 activity in Calu-3 cells (in words) [1]: inactive; anti-SARS-CoV-2 activity in Caco-2 cells (in words) ([5]; tested up to 100 μM): inactive; CC50 at 4 days ([14]; CEM CC50, 4 days): 28.5 µM
COCCCC/C(=N\OCCN)c1ccc(C(F)(F)F)cc1 [Fluvoxamine (maleate)]	> 100	> 100	–	–	–	–	–	–	17.9	47.5	–	36.7	35.4	0.003	> 100	> 100	35.5	0.23	anti-SARS-CoV-2 activity (in words), concentrations up to 100 μM ([3]; Vero CCL-81 cells, up to 100 μM): inactive; Caco-2 Unbound Cmax/EC50 ([5]; Cmax × Fun/EC50): 0.0017; CC50 at 4 days ([14]; CEM CC50, 4 days): 20 µM
Cc1cccc(Nc2ccccc2C(=O)O)c1C [Mefenamic acid]	> 100	87.6	> 100	–	–	–	–	–	> 100	–	–	> 100	> 100	1.58	> 100	> 100	> 100	0.1	higher probability of achieving patient-acceptable symptoms on day 8 [24]: about 16 fold; CC50 at 4 days [14]: > 100 µM
O=c1nc(NO)ccn1[C@@H]1O[C@H](CO)[C@@H](O)[C@H]1O [NHC, β-D-N4-hydroxycytidine]	–	–	–	–	–	–	–	–	–	–	–	–	–	–	–	–	–	–	CC50 [4]: 59.1 µM; CC50 [25]: > 100 µM; CC50 [19]: 18.8 µM; plasma t1/2 [26]: 3.3 h; CC50 [27]: > 100 µM; CC50 [21]: 59.8 µM
CC(C)(C)[C@H](NC(=O)C(F)(F)F)C(=O)N1C[C@H]2[C@@H]([C@H]1C(=O)N[C@H](C#N)C[C@@H]1CCNC1=O)C2(C)C [Nirmatrelvir]	–	–	–	6.8	–	–	–	–	0.1	0.3	–	–	–	–	–	–	–	0.31	EC50 [1, 31]: 1.8 µM; EC90 [1, 31]: 8.8 µM; EC50 [3, 32]: 3.7 µM; EC90 [3, 32]: 5.6 µM; CC50 [22]: > 100 µM; CC50 ([23]; CEM CC50, 4 days): > 100 µM; CC50 [7]: > 100 µM; CC50 [8]: > 100 µM; CC50 [9]: > 100 µM; Cmax (μM) {unbound} ([15]; Table 1, Cmax × Fun): 2.13 µM; CC50 [11]: > 100 µM
CC(c1cc2ccccc2s1)N(O)C(N)=O (centres unmarked) [Zileuton]	> 100	6.7	35.8	0.003	0.16	> 100	46.7	> 100	> 100	–	> 100	–	–	–	–	–	–	0.07	CC50 at 4 days [22]: > 100 µM; CC50 at 4 days [23]: > 100 µM
